Source: patent US20240417428A1, “POLYPEPTIDE FOR INHIBITING TRPM8 AND USE THEREOF” (ZHEJIANG UNIVERSITY, priority 2021, published 2024)
Where a SMILES comes first, the peptide text is derived from it.

How the values were obtained:
TRPV3 = biological target: T1, TRPV3 (Homo sapiens, UniProt Q8NET8); experiment: Electrophysiological recording, ligand activation of TRPV3; type: cell-based
T1 construct: expressed in transfected cells; host or cells: HEK293T
T1 sequence (Q8NET8 1-790): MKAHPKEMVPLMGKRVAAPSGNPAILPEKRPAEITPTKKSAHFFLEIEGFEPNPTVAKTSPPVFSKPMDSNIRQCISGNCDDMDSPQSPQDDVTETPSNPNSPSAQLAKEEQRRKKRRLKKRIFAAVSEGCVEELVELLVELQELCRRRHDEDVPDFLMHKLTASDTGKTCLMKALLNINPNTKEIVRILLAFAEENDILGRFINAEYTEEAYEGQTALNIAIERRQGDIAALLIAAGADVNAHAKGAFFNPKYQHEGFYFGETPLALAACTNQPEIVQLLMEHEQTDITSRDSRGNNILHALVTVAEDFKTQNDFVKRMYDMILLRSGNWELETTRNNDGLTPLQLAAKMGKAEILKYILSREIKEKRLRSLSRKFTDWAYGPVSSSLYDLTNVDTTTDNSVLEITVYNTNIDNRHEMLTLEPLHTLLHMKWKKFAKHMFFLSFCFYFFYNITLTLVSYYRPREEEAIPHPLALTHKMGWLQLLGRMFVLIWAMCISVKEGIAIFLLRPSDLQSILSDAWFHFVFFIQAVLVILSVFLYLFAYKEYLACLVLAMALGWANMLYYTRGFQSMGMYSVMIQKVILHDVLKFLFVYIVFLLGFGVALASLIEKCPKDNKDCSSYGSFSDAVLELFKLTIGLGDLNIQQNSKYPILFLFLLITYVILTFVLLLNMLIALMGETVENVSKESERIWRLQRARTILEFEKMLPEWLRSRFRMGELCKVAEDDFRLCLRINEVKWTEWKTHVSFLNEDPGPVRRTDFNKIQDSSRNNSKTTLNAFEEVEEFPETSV
Experimental: HEK293T cells were cultured in Dulbecco's modified Eagle culture medium under a 37° C., 5% CO2 environment, 10% fetal bovine serum, penicillin (100 U/mL), and streptomycin ([…]) was needed to add into the culture medium. Transient transfection was conducted by using Lipo 2000 (Invitrogen) transfection kit and following the instruction manual.
Electrophysiological experiment recordings were performed on the cells within 24˜48 h of transient transfections. Specifically, single channel electrophysiological recordings were performed within 8 h after transfection.
Measurement of the cell currents was respectively performed in the whole-cell recording mode, inside-out recording mode or outside-out recording mode with a HEKA EPC10 amplifier. In the whole cell electrophysiological recordings, glass microelectrodes made of borosilicate material were fire-polished to a original electrode resistance of about 3-6 MΩ. Serial resistance was compensated by 60%. The whole cell electrophysiological recordings were performed at ±80 mV. For single channel electrophysiological recordings, glass microelectrodes were fire-polished to a higher resistance of 6-8 MΩ2. Current signal was sampled at 10 kHz and filtered at 2.9 kHz. Membrane potential of the cell membrane would be clamped at +80 mV. All electrophysiological recordings were performed at room temperature (22° C.) (the maximum variation is 1° C.). […]

[1] = test system: oxaliplatin-induced mechanical allodynia; experiment: Oxaliplatin-induced mechanical allodynia, von Frey test; type: in vivo, mice; details: 3.5 μg/20 μl i.pl., day 10 after oxaliplatin, compared to saline
Experimental: Adult male CD1 mice (6-8 weeks old) were used as experimental animals for behavioral experiments and primary cultures of DRG neurons. Mice were raised in the condition of 12 h light/12 h dark of light cycle with adequate standard chow and water. All animal protocols were approved by the Institutional Animal Care and Use Committee (IACUC) of Zhejiang University.
All of mice were habituated to the behavioral testing environment for 1-to-2 hours in 2-to-3 days before the behavioral testing. Single intraperitoneal (i.p.) injection of oxaliplatin (6 mg/kg body weight) was given to generate chemotherapy-induced neuropathic pain. Neuropathic pain behaviors were tested about 10 days after oxaliplatin injection.
Mechanical allodynia was assessed by measuring paw withdrawal thresholds in von Frey test. The paw withdrawal thresholds of mice in the von Frey test were tested according to Dixon'sup-down method. […] The vonFrey hairs with different stiffness were selected in turn to simulate, with 5 s interval per two simulations, and total six simulations were completed, the paw withdrawal thresholds (PWT) of mice were assessed according to the responding amount table The von Frey test was respectively performed on day 10 pre- or post-treatment with Oxaliplatin, saline or 3.5 μg/20 μL DeC-1.2 was intraplantarly injected to assess its analgesic effect on oxaliplatin-induced allodynia.

SMILES: C[C@@H]1NC(=O)[C@H](CCCNC(=N)N)NC(=O)[C@H](CC(=O)O)NC(=O)[C@H](CCCNC(=N)N)NC(=O)[C@H](CCCNC(=N)N)NC(=O)[C@@H](N)CSSC[C@@H](C(=O)O)NC(=O)[C@H](CCCNC(=N)N)NC(=O)[C@H](CCC(N)=O)NC(=O)[C@H](CCCNC(=N)N)NC(=O)[C@H](Cc2ccc(O)cc2)NC(=O)[C@H](Cc2c[nH]cn2)NC(=O)[C@H](CCCNC(=N)N)NC1=O [DeC-1.2, CRRDRARHYRQRC] (HELM PEPTIDE1{C.R.R.D.R.A.R.H.Y.R.Q.R.C}$PEPTIDE1,PEPTIDE1,1:R3-13:R3$$$V2.0; N-terminus and C-terminus assumed)
- IC50 (TRPV3): > 100 µM
- inhibition of ligand activation of TRPV3 (TRPV3; DeC-1.2 5 μM): failed to inhibit
- paw withdrawal threshold in von Frey test [1]: did not change paw withdrawal threshold
